IC50 data for 15 compounds are collected here from US11505573B2, “Peptide macrocycles against Acinetobacter baumannii” (Hoffmann-La Roche Inc., priority 2018, dated 2022).

The experiment deals with A. baumannii ATCC 17978. The experiment is described as follows: Antimicrobial susceptibility testing: 50% growth inhibitory concentration (IC50) determination in Iso-Sensitest broth. The experiment is classed as cell-based. The conditions noted are these: Acinetobacter baumannii; A. baumannii strain ATCC17978; Iso-Sensitest medium; OD 600 nm over 16 h; 35±2° C.; read-out: IC50 ATCC17978 (50% growth inhibition concentration). The procedure: Antimicrobial Susceptibility Testing: 50% Growth Inhibitory Concentration (IC50) Determination The in vitro antimicrobial activity of the compounds was alternatively determined according to the following procedure: The assay used a 10-points Iso-Sensitest broth medium to measure quantitatively the in vitro activity of the compounds against A. baumannii ATCC 17978. Stock compounds in DMSO were serially twofold diluted (e.g. range from 10 to 0.02 μM final concentration) in 384 wells microtiter plates and inoculated with 49 μl the bacterial suspension in Iso-Sensitest medium to have a final cell concentration of ˜5×10^(5) CFU/ml in a final volume/well of […] Microtiter plates were incubated at 35±2° C. Bacterial cell growth was determined by the measurement of optical density at λ=600 nm each 20 minutes over a time course of 16 h. Growth inhibition was calculated during the logarithmic growth of the bacterial cells by determination of the concentration inhibiting 50% (IC50) and 90% (IC90) of the growth. Table 1 provides the 50% growth inhibitory concentrations (IC50) in micromoles per liter of the compounds of present invention obtained against the A. baumannnii strain ATCC17978.
Consider `CN1C(=O)[C@H](CCCCN)NC(=O)[C@H](CCCN)NCc2cccnc2Sc2cccc(-c3ccc(-c4nnn[nH]4)cc3)c2CNC(=O)[C@@H]1Cc1c[nH]c2ccccc12` [Example 5.00, (11S,14S,17S)-14-(4-Aminobutyl)-1-(3-aminopropyl)-17-(1H-indol-3-ylmethyl)-16-methyl-22-[4-(1H-tetrazol-5-yl)phenyl]-2-thia-4,10,13,16,19-pentazatricyclo[19.4.0.03,8]pentacosa-1(25), 3(8),4,6,21,23-hexaene-12,15,18-trione], for which the IC50 was 20 nM.
Then `CN1C(=O)[C@H](CCCCN)NC(=O)[C@H](CCN)NCc2cccnc2Sc2c(Cl)ccc(-c3ccc(S(=O)(=O)O)cc3)c2CNC(=O)[C@@H]1Cc1c[nH]c2ccccc12` [Example 12.00, 4-[(11S,14S,17S)-14-(4-Aminobutyl)-11-(2-aminoethyl)-25-chloro-17-(1H-indol-3-ylmethyl)-16-methyl-12,15,18-trioxo-2-thia-4,10,13,16,19-pentazatricyclo[19.4.0.03,8]pentacosa-1(25), 3(8),4,6,21,23-hexaen-22-yl]benzenesulfonic acid], with 20 nM; and `CN1C(=O)[C@H](CCCCN)NC(=O)[C@H](CCCO)NCc2cccnc2Sc2c(Cl)ccc(-c3cnc(O)nc3)c2CNC(=O)[C@@H]1Cc1c[nH]c2ccccc12` [Example 16.01, (11S,14S,17S)-14-(4-Aminobutyl)-25-chloro-11-(3-hydroxypropyl)-22-(2-hydroxypyrimidin-5-yl)-17-(1H-indol-3-ylmethyl)-16-methyl-2-thia-4,10,13,16,19-pentazatricyclo[19.4.0.03,8]pentacosa-1(21),3,5,7,22,24-hexaene-12,15,18-trione], with 1840 nM.
Regarding `CN1C(=O)[C@H](CCCCN)NC(=O)[C@H](CCCN)NCc2cccnc2Sc2c(F)ccc(-c3ccc(-c4nnn[nH]4)cc3)c2CNC(=O)[C@@H]1Cc1c[nH]c2ccccc12` [Example 7.01, (11S,14S,17S)-14-(4-aminobutyl)-11-(3-aminopropyl)-25-fluoro-17-(1H-indol-3-ylmethyl)-16-methyl-22-[4-(1H-tetrazol-5-yl)phenyl]-2-thia-4,10,13,16,19-pentazatricyclo[19.4.0.03,8]pentacosa-1(25),3(8),4,6,21,23-hexaene-12,15,18-trione], the IC50 turned out to be 20 nM.
`CN1C(=O)[C@H](CCCCN)NC(=O)[C@H](CCCN)NCc2cccnc2Sc2c(Cl)ccc(-c3cnc(=O)[nH]c3)c2CNC(=O)[C@@H]1Cc1c[nH]c2ccccc12` [Example 1.05, (11S,14S,17S)-14-(4-aminobutyl)-11-(3-aminopropyl)-25-chloro-17-(1H-indol-3-ylmethyl)-16-methyl-22-(2-oxo-1H-pyrimidin-5-yl)-2-thia-4,10,13,16,19-pentazatricyclo[19.4.0.03,8]pentacosa-1(25),3,5,7,21,23-hexaene-12,15,18-trione]: the IC50 stood at 20 nM.
Then `CN1C(=O)[C@H](CCCCN)NC(=O)[C@H](CCCN)NCc2cccnc2Sc2c(Cl)ccc(-c3ccc4nn[nH]c4c3)c2CNC(=O)[C@@H]1Cc1c[nH]c2ccccc12` [Example 1.01, (11S,14S,17S)-14-(4-aminobutyl)-11-(3-aminopropyl)-22-(3H-benzotriazol-5-yl)-25-chloro-17-(1H-indol-3-ylmethyl)-16-methyl-2-thia-4,10,13,16,19-pentazatricyclo[19.4.0.03,8]pentacosa-1(25),3,5,7,21,23-hexaene-12,15,18-trione], with 20 nM.
Regarding `CC(=O)NS(=O)(=O)c1ccc(-c2ccc(F)c3c2CNC(=O)[C@H](Cc2c[nH]c4ccccc24)N(C)C(=O)[C@H](CCCCN)NC(=O)[C@H](CCCN)NCc2cccnc2S3)cc1` [Example 7.02, N-[4-[(11S,14S,17S)-14-(4-aminobutyl)-11-(3-aminopropyl)-25-fluoro-17-(1H-indol-3-ylmethyl)-16-methyl-12,15,18-trioxo-2-thia-4,10,13,16,19-pentazatricyclo[19.4.0.03,8]pentacosa-1(25),3(8),4,6,21,23-hexaen-22-yl]phenyl]sulfonylacetamide], the IC50 is 30 nM.
For `CNCCCC[C@@H]1NC(=O)[C@H](CCCO)NCc2cccnc2Sc2c(Cl)ccc(-c3ccc(S(=O)(=O)NC(C)=O)cc3)c2CNC(=O)[C@H](Cc2c[nH]c3ccccc23)N(C)C1=O` [Example 18.00, N-[4-[(11S,14S,17S)-25-Chloro-11-(3-hydroxypropyl)-17-(1H-indol-3-ylmethyl)-16-methyl-14-[4-(methylamino)butyl]-12,15,18-trioxo-2-thia-4,10,13,16,19-pentazatricyclo[19.4.0.03,8]pentacosa-1(21),3,5,7,22,24-hexaen-22-yl]phenyl]sulfonylacetamide], the IC50 turned out to be 630 nM.
As for `CN1C(=O)[C@H](CCCCN)NC(=O)[C@H](CCCN)NCc2cccnc2Sc2c(Cl)ccc(-c3ccc(-c4nnn[nH]4)cc3)c2CNC(=O)[C@@H]1Cc1c[nH]c2ccccc12` [Example 1.02, (11S,14S,17S)-14-(4-aminobutyl)-11-(3-aminopropyl)-25-chloro-17-(1H-indol-3-ylmethyl)-16-methyl-22-[4-(1H-tetrazol-5-yl)phenyl]-2-thia-4,10,13,16,19-pentazatricyclo[19.4.0.03,8]pentacosa-1(25),3,5,7,21,23-hexaene-12,15,18-trione], the IC50 turned out to be 100 nM.
For `CN1C(=O)[C@H](CCCCN)NC(=O)[C@H](CCCN)NCc2cccnc2Sc2c(Cl)ccc(-c3ccc(-c4noc(=O)[nH]4)cc3)c2CNC(=O)[C@@H]1Cc1c[nH]c2ccccc12` [Example 4.00, (11S,14S,17S)-14-(4-Aminobutyl)-11-(3-aminopropyl)-25-chloro-17-(1H-indol-3-ylmethyl)-16-methyl-22-[4-(5-oxo-4H-1,2,4-oxadiazol-3-yl)phenyl]-2-thia-4,10,13,16,19-pentazatricyclo[19.4.0.03,8]pentacosa-1(25), 3(8),4,6,21,23-hexaene-12,15,18-trione] the value was 20 nM.
For `CN1C(=O)[C@H](CCCCN)NC(=O)[C@H](CCCN)NCc2cccnc2Sc2c(Cl)ccc(-c3cccc(-c4nnn[nH]4)c3)c2CNC(=O)[C@@H]1Cc1c[nH]c2ccccc12` [Example 1.03, (11S,14S,17S)-14-(4-aminobutyl)-11-(3-aminopropyl)-25-chloro-17-(1H-indol-3-ylmethyl)-16-methyl-22-[3-(1H-tetrazol-5-yl)phenyl]-2-thia-4,10,13,16,19-pentazatricyclo[19.4.0.03,8]pentacosa-1(25),3,5,7,21,23-hexaene-12,15,18-trione], the IC50 worked out at 360 nM.
As for `CN1C(=O)[C@H](CCCCN)NC(=O)[C@H](CCCN)NCc2cccnc2Sc2c(Cl)cc(-c3cn[nH]n3)cc2CNC(=O)[C@@H]1Cc1c[nH]c2ccccc12` [Example 22.00, (11S,14S,17S)-14-(4-Aminobutyl)-1-(3-aminopropyl)-25-chloro-17-(1H-indol-3-ylmethyl)-16-methyl-23-(1H-triazol-5-yl)-2-thia-4,10,13,16,19-pentazatricyclo[19.4.0.03,8]pentacosa-1(21),3,5,7,22,24-hexaene-12,15,18-trione], the IC50 is 180 nM.
`CN1C(=O)[C@H](CCCCN)NC(=O)[C@H](CCCN)NCc2nccnc2Sc2c(Cl)ccc(-c3ccc(S(=O)(=O)O)cc3)c2CNC(=O)[C@@H]1Cc1c[nH]c2ccccc12` [Example 6.00, 4-[(11S,14S,17S)-14-(4-Aminobutyl)-1-(3-aminopropyl)-25-chloro-17-(1H-indol-3-ylmethyl)-16-methyl-12,15,18-trioxo-2-thia-4,7,10,13,16,19-hexazatricyclo[19.4.0.03,8]pentacosa-1(25), 3(8),4,6,21,23-hexaen-22-yl]benzenesulfonic acid]: the IC50 was 20 nM.
In the case of `CC(=O)NS(=O)(=O)c1ccc(-c2ccc(Cl)c3c2CNC(=O)[C@H](Cc2c[nH]c4ccccc24)N(C)C(=O)[C@H](CCCCNCC(F)F)NC(=O)[C@H](CCCO)NCc2cccnc2S3)cc1` [Example 17.00, N-[4-[(11S,14S,7S)-25-Chloro-14-[4-(2,2-difluoroethylamino)butyl]-11-(3-hydroxypropyl)-17-(1H-indol-3-ylmethyl)-16-methyl-12,15,18-trioxo-2-thia-4,10,13,16,19-pentazatricyclo[19.4.0.03,8]pentacosa-1(21),3,5,7,22,24-hexaen-22-yl]phenyl]sulfonylacetamide], the IC50 was 5220 nM.
In the case of `COc1ccc(-c2ccc(-c3nnn[nH]3)cc2)c2c1Sc1ncccc1CN[C@@H](CCCN)C(=O)N[C@@H](CCCCN)C(=O)N(C)[C@@H](Cc1c[nH]c3ccccc13)C(=O)NC2` [Example 15.01, (11S,14S,17S)-14-(4-Aminobutyl)-1-(3-aminopropyl)-17-(1H-indol-3-ylmethyl)-25-methoxy-16-methyl-22-[4-(1H-tetrazol-5-yl)phenyl]-2-thia-4,10,13,16,19-pentazatricyclo[19.4.0.03,8]pentacosa-1(25), 3(8),4,6,21,23-hexaene-12,15,18-trione], the IC50 is 40 nM.
